# Laboratory results published in the PolyMetriX glass transition set.
# ± gives the standard deviation of the reports.
row,Compound,glass transition temperature
1,*CCN(CCOC(=O)Nc1ccc(C)c(NC(=O)O*)c1)c1ccc(/C=C/c2ccc([N+](=O)[O-])cc2)cc1 (repeat unit),121.00 °C
2,*C1C(=O)N(c2ccc(O[Si](C)(C)C(C)(C)C)cc2)C(=O)C1* (repeat unit),169.00 °C
3,*CCCCCCCCCC[N+](*)(C)C (repeat unit),65.90 °C
4,*NNC(=O)c1ccccc1C(=O)NCCCCCCNC(=O)c1ccccc1C(*)=O (repeat unit),224.50 °C
5,*OC(F)(F)C(F)(F)C(*)(F)F (repeat unit),-109.00 °C
6,*O[Si](*)(C)CCCCCCCCCCCOc1ccc(/C=C/c2ccc(C#N)cc2)cc1 (repeat unit),-55.00 °C
7,*CC(*)(C)C(=O)OCCCC (repeat unit) [poly(butyl methacrylate)],22.42 ± 6.3 °C
8,*c1ccc(Oc2ccc3c(c2)C(=O)N(*)C3=O)cc1 (repeat unit),266.00 °C
9,*CC(*)(C)C(=O)OCCCCn1c2ccccc2c2ccccc21 (repeat unit),59.20 °C
10,*Oc1ccccc1C(=O)OC(=O)c1ccccc1OC(=O)c1ccc(C(*)=O)cc1 (repeat unit),120.00 °C
11,*CCOCCOc1cccc(NC(=O)c2cccc(C(=O)Nc3cccc(O*)c3)c2)c1 (repeat unit),128.50 °C
12,*CC(*)(C)C(=O)OCCOc1ccc(/N=N/c2ccc(OC)cc2)cc1 (repeat unit),109.00 °C
13,*CCCCNC(=O)C(OC)C(OC)C(=O)N* (repeat unit),100.00 °C
14,*Oc1ccc(C(c2ccc(OC(*)=S)cc2)C(CC)CC)cc1 (repeat unit),148.00 °C
15,*CC(*)OC(=O)c1ccccc1Cl (repeat unit),55.8 °C
16,*/C=C(\C#N)C(=O)OCCCCCCCCCCOC(=O)/C(C#N)=C/c1ccc2c(c1)c1cc(*)ccc1n2CCCCCCCCCCCCCC (repeat unit),35.00 °C
17,*CCC/C=C(/*)c1ccc(Cl)cc1 (repeat unit),16.00 °C
18,*CCCCCCCCCCCC(=O)N(*)C (repeat unit),-29.00 °C
19,*NC(CCC(=O)OCc1ccc(C(F)(F)F)cc1)C(*)=O (repeat unit),26.57 °C
20,*Oc1ccc(CC(NC(=O)Cc2ccc(OC(=O)CCCCCCCCC(*)=O)cc2)C(=O)OCCCCCCCC)cc1 (repeat unit),16.00 °C
21,*c1ccc(-c2ccc3c(c2)C(CCCCCCCC)(CCCCCCCC)c2cc(-c4ccc(N(*)c5ccc(N(c6ccc(C(C)(C)c7ccccc7)cc6)c6ccc(C(C)(C)c7ccccc7)cc6)cc5)cc4)ccc2-3)cc1 (repeat unit),137.00 °C

row,Compound,glass transition temperature
1,*CC(*)c1cc(C(=O)OCCCCCCCCCC)ccc1-c1ccc(OCCCCCCCC)cc1 (repeat unit),44.00 °C
2,*Oc1ccc(C(C)(CC)c2ccc(OC(*)=O)c(Cl)c2)cc1Cl (repeat unit),142.00 °C
3,*CCCCOc1ccc(C(=O)OC(=O)c2ccc(O*)cc2)cc1 (repeat unit),45.00 °C
4,*CC1CCC(CNC(=O)CCCCCCCCCCC(=O)N*)CC1 (repeat unit),85.00 °C
5,*Oc1ccc(Oc2ccc(C(=O)c3ccc(P(=O)(c4ccccc4)c4ccc(C(=O)c5ccc(*)cc5)cc4)cc3)cc2)cc1 (repeat unit),207.00 °C
6,*CC(*)c1ccc(C(O)C(F)(F)F)cc1 (repeat unit),110.00 °C
7,*CC(*)(C)C(=O)OC1CCCC(C)C1 (repeat unit),89.00 °C
8,*NC(CCC(=O)OCc1ccc([N+](=O)[O-])cc1)C(*)=O (repeat unit),53.2 °C
9,*CC(*)OC(=O)CCCC1CCCCC1 (repeat unit),-10.00 °C
10,*CCCCCCN(C)c1ccc(C(=O)c2ccc(N(*)C)cc2)cc1 (repeat unit),75.50 °C
11,*OC(=O)c1ccc(CCCCCCc2ccc(C(*)=O)cc2)cc1 (repeat unit),20.00 °C
12,*CCOC(=O)c1cc(C(=O)O*)cc(C(C)(C)C)c1 (repeat unit),94.00 °C
13,*CC(O)COc1ccc(C(C)CC(C)(C)c2ccc(O*)cc2)cc1 (repeat unit),75.00 °C
14,*CCN* (repeat unit) [poly(2-oxazoline)s],-35.77 ± 17 °C
15,*CCCNC(=O)O* (repeat unit),26.00 °C
16,*c1cccc(P(=O)(c2ccc(C(F)(F)F)cc2)c2cccc(-n3c(=O)c4c(-c5ccc(C(F)(F)F)cc5)c5c(=O)n(*)c(=O)c5c(-c5ccc(C(F)(F)F)cc5)c4c3=O)c2)c1 (repeat unit),324.00 °C
17,*Oc1ccc(CC(NC(=O)CCc2ccc(OC(=O)COCC(*)=O)cc2)C(=O)OCCOCCOCC)cc1 (repeat unit),27.00 °C
18,*Oc1ccc(CC(NC(=O)Cc2ccc(OC(=O)CCCCCCCCC(*)=O)cc2)C(=O)OCC)cc1 (repeat unit),43.00 °C
19,*Oc1ccc(C(C)(C)c2ccc(OC3(F)C(*)(F)C(F)(F)C3(F)F)cc2)cc1 (repeat unit),98.00 °C
20,*Oc1ccc(P(=O)(c2ccccc2)c2ccc(*)cc2)cc1 (repeat unit),240.00 °C
21,*CCN(CCOC(=O)c1cc(OC2CCN(c3ccc(S(=O)(=O)C(F)(F)C(F)(F)C(F)(F)C(F)(F)C(F)(F)C(F)(F)C(F)(F)C(F)(F)F)cc3)CC2)cc(C(=O)O*)c1)c1ccc(S(=O)(=O)C(F)(F)C(F)(F)C(F)(F)C(F)(F)C(F)(F)C(F)(F)C(F)(F)C(F)(F)F)cc1 (repeat unit),99.00 °C

# Other lines, results leading:
row,glass transition temperature,Compound
1,180.00 °C,*CCCCc1ccc(-c2c(-c3ccccc3)cc(-c3cccc(-c4cc(-c5ccccc5)c(-c5ccc(*)cc5)c(-c5ccccc5)c4-c4ccccc4)c3)c(-c3ccccc3)c2-c2ccccc2)cc1 (repeat unit)
2,183.00 °C,*C1C(=O)N(c2ccc(O[Si](c3ccccc3)(c3ccccc3)c3ccccc3)cc2)C(=O)C1* (repeat unit)
3,260.00 °C,*c1ccc(Oc2ccc(-n3nc(-c4ccccc4)cc3-c3ccc(-c4cc(-c5ccccc5)nn4*)cc3)cc2)cc1 (repeat unit)
4,436.00 °C,*c1ccc(C(c2ccccc2)(c2ccc(-n3c(=O)c4cc5c(=O)n(*)c(=O)c5cc4c3=O)cc2)C(F)(F)F)cc1 (repeat unit)
5,338.00 °C,*C(=O)Nc1ccc(-c2sc(-c3ccc(NC(=O)c4ccc5c(c4)C(=O)N(c4ccc(-c6sc(-c7ccc(N8C(=O)c9ccc(*)cc9C8=O)cc7)c(-c7ccccc7)c6-c6ccccc6)cc4)C5=O)cc3)c(-c3ccccc3)c2-c2ccccc2)cc1 (repeat unit)
6,309.00 °C,*c1ccc(Oc2ccc(Oc3ccc(-c4nnc(*)c5c(-c6ccc(F)cc6)c(-c6ccc(F)cc6)c(-c6ccc(F)cc6)c(-c6ccc(F)cc6)c45)cc3)cc2)cc1 (repeat unit)
7,164.00 °C,*C(=O)Nc1cc(NC(=O)c2ccc3c(c2)C(=O)N(c2cc(-c4nnc(-c5ccccn5)o4)cc(N4C(=O)c5ccc(*)cc5C4=O)c2)C3=O)cc(-c2nnc(-c3ccccn3)o2)c1 (repeat unit)
8,295.00 °C,*C(=O)Nc1ccc(NC(=O)c2ccc(NC(=O)c3ccc(-c4nc5cc(*)ccc5[nH]4)cc3)cc2)cc1 (repeat unit)
9,230.00 °C,*CCOCCOc1ccc(C(=O)Nc2cc(NC(=O)c3ccc(O*)cc3)cc(-c3nc4ccccc4[nH]3)c2)cc1 (repeat unit)
10,260.00 °C,*c1ccc2c(c1)C(=O)N(c1cccc(Oc3ccc(N4C(=O)c5ccc(C(*)(C(F)(F)F)C(F)(F)F)cc5C4=O)cc3)c1)C2=O (repeat unit)
11,171.00 °C,*Oc1ccc(C(C)(C)c2ccc(Oc3ccc(C(=O)c4ccc(C(C)(C)c5ccc(C(=O)c6ccc(*)cc6)cc5)cc4)cc3)cc2)cc1 (repeat unit)
12,254.50 °C,*C(=O)c1cc(C(=O)c2ccc3c(c2)C(=O)N(c2ccc(Oc4ccc(S(=O)(=O)c5ccc(Oc6ccc(N7C(=O)c8ccc(*)cc8C7=O)cc6)cc5)cc4)cc2)C3=O)cc(C(C)(C)C)c1 (repeat unit)
13,224.00 °C,*Oc1ccc(Oc2ccc(C(=O)c3ccc(NC(=O)c4ccc(C(=O)Nc5ccc(C(=O)c6ccc(*)cc6)cc5)cc4)cc3)cc2)cc1 (repeat unit)
14,420.00 °C,*c1c(C)cc(-c2cc(C)c(N3C(=O)c4ccc(Oc5c(C)cc(Cc6cc(C)c(Oc7ccc8c(c7)C(=O)N(*)C8=O)c(C)c6)cc5C)cc4C3=O)c(C)c2)cc1C (repeat unit)
15,310.00 °C,*Oc1ccc(C(=O)Nc2ccc(S(=O)(=O)c3ccc(NC(=O)c4ccc(Oc5nc(*)nc(Sc6ccccc6)n5)cc4)cc3)cc2)cc1 (repeat unit)
16,285.00 °C,*Oc1ccc(C2(c3ccc(OC(=O)c4ccc(C(*)=O)cc4)cc3)c3ccccc3-c3ccccc32)cc1 (repeat unit)
17,242.00 °C,*C(=O)c1ccc2c(c1)C(=O)N(c1cccc(C(=O)c3ccc(Oc4ccc(N5C(=O)c6ccc(*)cc6C5=O)cc4C(F)(F)F)cc3)c1)C2=O (repeat unit)
18,182.00 °C,*Oc1ccc(C(=O)Nc2cc(NC(=O)c3ccc(*)cc3)cc(C(=O)OCCOC(=O)/C=C/c3ccc(N(C)C)cc3)c2)cc1 (repeat unit)
19,350.00 °C,*c1ccc(-c2ccc(-c3cc(-c4ccccc4)c4cc(C5(c6ccc7nc(*)cc(-c8ccccc8)c7c6)c6ccccc6C(=O)c6ccccc65)ccc4n3)cc2)cc1 (repeat unit)
20,189.00 °C,*c1ccc(Cc2ccc(N3C(=O)C(Cl)=C(Oc4ccc(C(c5ccc(OC6=C(Cl)C(=O)N(*)C6=O)cc5)(C(F)(F)F)C(F)(F)F)cc4)C3=O)cc2)cc1 (repeat unit)
21,291.00 °C,*C(=O)Nc1nc(NC(=O)c2ccc3c(c2)C(=O)N(c2ccc(Oc4cccc5c(N6C(=O)c7ccc(*)cc7C6=O)cccc45)cc2)C3=O)nc(-c2ccccc2)n1 (repeat unit)
